Reference: BindingDB's records for doi:10.1016/j.bmcl.2014.06.082 (Friedrich Alexander University, 2014)

Biological target: T1, G protein-coupled receptor (Human cytomegalovirus, UniProt Q9IP65)
T1 sequence (Q9IP65 whole entry): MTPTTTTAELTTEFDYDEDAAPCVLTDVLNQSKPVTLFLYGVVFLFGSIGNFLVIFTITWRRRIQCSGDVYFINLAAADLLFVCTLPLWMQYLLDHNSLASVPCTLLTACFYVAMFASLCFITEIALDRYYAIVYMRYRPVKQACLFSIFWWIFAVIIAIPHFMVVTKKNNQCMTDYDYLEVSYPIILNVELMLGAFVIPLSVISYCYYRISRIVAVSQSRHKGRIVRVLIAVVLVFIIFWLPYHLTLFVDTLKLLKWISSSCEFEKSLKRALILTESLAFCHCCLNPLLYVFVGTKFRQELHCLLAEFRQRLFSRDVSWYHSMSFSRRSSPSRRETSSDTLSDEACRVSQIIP
Assay: Allosteric modulatory activity at FLAG-tagged human cytomegalovirus US28 receptor delta300 mutant expressed in HEK293T cells by PathDetectElk1 assay

Compound	EC50 [µM]
CCCCCCCCCC(=O)N(CCN(C)C)CC1(C)Cc2ccccc2C(=O)N1 (configuration not stated)	< 10
N#CC(CCCN1CCC(O)(c2ccc(Cl)cc2)CC1)(c1ccccc1)c1ccccc1 [5-[4-(4-Chloro-phenyl)-4-hydroxy-piperidin-1-yl]-2,2-diphenyl-pentanenitrile]	< 10
